# Results published in ChEMBL document CHEMBL3758081, “Synthesis and biological evaluation of new naphthalene substituted thiosemicarbazone derivatives as potent antifungal and anticancer agents” (Eur J Med Chem, 2016).
# Legend:
# Candida albicans = assay: Antifungal activity against Candida albicans ATCC-90028 after 48 hrs by broth microdilution method; type: functional; conditions: ATCC-90028, 48 h
# Salmonella typhimurium [1] = assay: Mutagenicity in Salmonella typhimurium TA100 at 2.5 mg/ml after 48 hrs by Ames MPF assay in presence of Sprague-Dawley rat liver S9 fraction; type: toxicity, organism-based; conditions: salmonella enterica subsp. enterica serovar typhimurium, s9, 48 h
# Salmonella typhimurium [2] = assay: Genotoxicity in Salmonella typhimurium TA1535/pSK1002 assessed as growth factor at 2.5 mg/ml after 2 hrs by umuC assay in absence of Sprague-Dawley rat liver S9 fraction; type: toxicity, organism-based; conditions: salmonella enterica subsp. enterica serovar typhimurium
# Aspergillus niger = assay: Antifungal activity against Aspergillus niger ATCC-1094 after 72 hrs by broth microdilution method; type: functional; conditions: ATCC-1094, 72 h
# Salmonella typhimurium [3] = assay: Mutagenicity in Salmonella typhimurium TA100 at 1.25 mg/ml after 48 hrs by Ames MPF assay in absence of Sprague-Dawley rat liver S9 fraction; type: toxicity, organism-based; conditions: salmonella enterica subsp. enterica serovar typhimurium
# Salmonella typhimurium [4] = assay: Mutagenicity in Salmonella typhimurium TA100 at 5 mg/ml after 48 hrs by Ames MPF assay in absence of Sprague-Dawley rat liver S9 fraction; type: toxicity, organism-based; conditions: salmonella enterica subsp. enterica serovar typhimurium
# Salmonella typhimurium [5] = assay: Genotoxicity in Salmonella typhimurium TA1535/pSK1002 assessed as growth factor at 0.3125 mg/ml after 2 hrs by umuC assay in presence of Sprague-Dawley rat liver S9 fraction; type: toxicity, organism-based; conditions: salmonella enterica subsp. enterica serovar typhimurium, s9, 2 h
# Salmonella typhimurium [6] = assay: Genotoxicity in Salmonella typhimurium TA1535/pSK1002 assessed as growth factor at 5 mg/ml after 2 hrs by umuC assay in presence of Sprague-Dawley rat liver S9 fraction; type: toxicity, organism-based; conditions: salmonella enterica subsp. enterica serovar typhimurium, s9, 2 h
# Salmonella typhimurium [7] = assay: Mutagenicity in Salmonella typhimurium TA100 at 5 mg/ml after 48 hrs by Ames MPF assay in presence of Sprague-Dawley rat liver S9 fraction; type: toxicity, organism-based; conditions: salmonella enterica subsp. enterica serovar typhimurium, s9, 48 h
# Salmonella typhimurium [8] = assay: Genotoxicity in Salmonella typhimurium TA1535/pSK1002 assessed as growth factor at 0.625 mg/ml after 2 hrs by umuC assay in presence of Sprague-Dawley rat liver S9 fraction; type: toxicity, organism-based; conditions: salmonella enterica subsp. enterica serovar typhimurium, s9, 2 h
# Candida parapsilosis = assay: Antifungal activity against Candida parapsilosis NRLL Y-12696 after 48 hrs by broth microdilution method; type: functional; conditions: Lodderomyces parapsilosis, NRLL Y-12696, 48 h
# A549 = assay: Cytotoxicity against human A549 cells after 24 hrs by XTT assay; type: functional, cell-based; conditions: A549, 24 h
# Salmonella typhimurium [9] = assay: Mutagenicity in Salmonella typhimurium TA98 at 0.3125 mg/ml after 48 hrs by Ames MPF assay in absence of Sprague-Dawley rat liver S9 fraction; type: toxicity, organism-based; conditions: salmonella enterica subsp. enterica serovar typhimurium
# [10] = Genotoxicity in Salmonella typhimurium TA1535/pSK1002 assessed as induction ratio at 0.625 mg/ml after 2 hrs by umuC assay in absence of Sprague-Dawley rat liver S9 fraction; type: toxicity, organism-based; conditions: salmonella enterica subsp. enterica serovar typhimurium
# Salmonella typhimurium [11] = assay: Mutagenicity in Salmonella typhimurium TA98 at 0.625 mg/ml after 48 hrs by Ames MPF assay in presence of Sprague-Dawley rat liver S9 fraction; type: toxicity, organism-based; conditions: salmonella enterica subsp. enterica serovar typhimurium, s9, 48 h
# Salmonella typhimurium [12] = assay: Mutagenicity in Salmonella typhimurium TA100 at 0.3125 mg/ml after 48 hrs by Ames MPF assay in presence of Sprague-Dawley rat liver S9 fraction; type: toxicity, organism-based; conditions: salmonella enterica subsp. enterica serovar typhimurium, s9, 48 h
# Salmonella typhimurium [13] = assay: Mutagenicity in Salmonella typhimurium TA100 at 0.156 mg/ml after 48 hrs by Ames MPF assay in absence of Sprague-Dawley rat liver S9 fraction; type: toxicity, organism-based; conditions: salmonella enterica subsp. enterica serovar typhimurium
# Aspergillus flavus = assay: Antifungal activity against Aspergillus flavus NRRL-980 after 72 hrs by broth microdilution method; type: functional; conditions: NRRL-980, 72 h
# Salmonella typhimurium [14] = assay: Genotoxicity in Salmonella typhimurium TA1535/pSK1002 assessed as growth factor at 0.156 mg/ml after 2 hrs by umuC assay in presence of Sprague-Dawley rat liver S9 fraction; type: toxicity, organism-based; conditions: salmonella enterica subsp. enterica serovar typhimurium, s9, 2 h
# [15] = Genotoxicity in Salmonella typhimurium TA1535/pSK1002 assessed as induction ratio at 2.5 mg/ml after 2 hrs by umuC assay in presence of Sprague-Dawley rat liver S9 fraction; type: toxicity, organism-based; conditions: salmonella enterica subsp. enterica serovar typhimurium
# Salmonella typhimurium [16] = assay: Mutagenicity in Salmonella typhimurium TA98 at 0.156 mg/ml after 48 hrs by Ames MPF assay in absence of Sprague-Dawley rat liver S9 fraction; type: toxicity, organism-based; conditions: salmonella enterica subsp. enterica serovar typhimurium
# Salmonella typhimurium [17] = assay: Genotoxicity in Salmonella typhimurium TA1535/pSK1002 assessed as growth factor at 2.5 mg/ml after 2 hrs by umuC assay in presence of Sprague-Dawley rat liver S9 fraction; type: toxicity, organism-based; conditions: salmonella enterica subsp. enterica serovar typhimurium, s9, 2 h
# Salmonella typhimurium [18] = assay: Mutagenicity in Salmonella typhimurium TA100 at 2.5 mg/ml after 48 hrs by Ames MPF assay in absence of Sprague-Dawley rat liver S9 fraction; type: toxicity, organism-based; conditions: salmonella enterica subsp. enterica serovar typhimurium
# Aspergillus parasiticus = assay: Antifungal activity against Aspergillus parasiticus NRRL 465 after 72 hrs by broth microdilution method; type: functional; conditions: NRRL 465, 72 h
SMILES,MIC (Candida albicans) [µg/mL],fold change (FC) (Salmonella typhimurium [1]),Activity (Salmonella typhimurium [2]),MIC (Aspergillus niger) [µg/mL],fold change (FC) (Salmonella typhimurium [3]),fold change (FC) (Salmonella typhimurium [4]),Activity (Salmonella typhimurium [5]),Activity (Salmonella typhimurium [6]),fold change (FC) (Salmonella typhimurium [7]),Activity (Salmonella typhimurium [8]),MIC (Candida parapsilosis) [µg/mL],IC50 (A549) [µg/mL],fold change (FC) (Salmonella typhimurium [9]),"fold induction at 2 h, 0.625 mg/ml [10]",fold change (FC) (Salmonella typhimurium [11]),fold change (FC) (Salmonella typhimurium [12]),fold change (FC) (Salmonella typhimurium [13]),MIC (Aspergillus flavus) [µg/mL],Activity (Salmonella typhimurium [14]),"fold induction at 2 h, 2.5 mg/ml [15]",other results
Fc1cccc(/C=N/NC(=S)Nc2cccc3ccccc23)c1F,250,0.58,0.311,250,0.42,0.42,0.121,0.24,1.02,0.236,250,500,0,1.75,0.84,1.07,0.48,250,0.274,3.99,fold change (FC) (Salmonella typhimurium [16]): 0.17; Activity (Salmonella typhimurium [17]): 0.231; fold change (FC) (Salmonella typhimurium [18]): 0.18; MIC (Aspergillus parasiticus): 250 µg/mL
Fc1ccc(F)c(/C=N/NC(=S)Nc2cccc3ccccc23)c1,250,0.48,0.137,250,0.36,0.36,0.23,0.228,0.78,0.274,250,500,0,6,0.28,0.34,0.6,250,0.235,1.39,fold change (FC) (Salmonella typhimurium [16]): 0.51; Activity (Salmonella typhimurium [17]): 0.236; fold change (FC) (Salmonella typhimurium [18]): 0.48; MIC (Aspergillus parasiticus): 250 µg/mL
